Test results reported in publication PMC4920673, “Nitroimidazole carboxamides as antiparasitic agents targeting Giardia lamblia, Entamoeba histolytica and Trichomonas vaginalis” (European Journal of Medicinal Chemistry, 2016).
Values after ≈ are worked out from the molar mass of the structure shown. Like-named read-outs stand apart in the source and are kept apart here.

Assays:
G. lamblia WB (MtzS) = assay: ATP-bioluminescence growth/survival EC50 assay, G. lamblia WB; conditions: for EC50: Giardia duodenalis; for S.I (CC50/EC50): average cytotoxicity against HEK293 and HepG2 / G. lamblia WB activity
Procedure: (§1) Compounds were screened for antiparasitic activity using an ATP-bioluminescence based assay for cell growth and survival, [24]. […] Viable cell numbers were determined in triplicate using the CellTiter-Glo Luminescent Cell Viability Assay.

G. lamblia 713M3 (MtzR) = assay: ATP-bioluminescence growth/survival EC50 assay, G. lamblia 713M3; format: cell-based, Giardia lamblia
Procedure: as §1

E. histolytica HM1:IMSS = assay: ATP-bioluminescence growth/survival EC50 assay, E. histolytica; format: cell-based, Entamoeba histolytica; conditions: Entamoeba histolytica
Procedure: as §1

T. vaginalis F1623 = assay: ATP-bioluminescence growth/survival EC50 assay, T. vaginalis; format: cell-based, Trichomonas vaginalis
Procedure: as §1

[1] = tested on: C. difficile 630 (ATCC BAA-1382); assay: Broth microdilution MIC assay, C. difficile 630; format: cell-based, Clostridium difficile; conditions: Clostridioides difficile, ATCCBAA1382
Procedure: Clostridium difficile strains (630, ATCC BAA-1382 and NAP1/027, ATCC BAA-1803) were maintained as previously described. The minimum inhibition concentration (MIC) was determined according to the CLSI Methods with modifications in broth and inoculum for C. difficile, [25], [26]. Briefly, compounds and control antibiotics were serially diluted two-fold in 96-well plates (Non-binding surface, Corning). […] C. difficile bacteria from BHIS(TA) agar plates were cultured anaerobically in BHIS at 37 °C overnight. […] An antibiotic standard, a positive growth control (no compound) and a sterility control (no bacteria) were included on each 96 well plate. Plates were covered and incubated at 37 °C for 24 h. MICs for each strain were determined as the lowest concentration without visible growth. […] Median MICs are reported with a range given when the median MIC was between two tested concentrations.

[2] = tested on: C. difficile NAP1/027 (ATCC BAA-1803); assay: Broth microdilution MIC assay, C. difficile NAP1/027; format: cell-based, Clostridium difficile; conditions: Clostridioides difficile, ATCCBAA1803; strain NAP1/027
Procedure: Clostridium difficile strains (630, ATCC BAA-1382 and NAP1/027, ATCC BAA-1803) were maintained as previously described. The minimum inhibition concentration (MIC) was determined according to the CLSI Methods with modifications in broth and inoculum for C. difficile, [25], [26]. Briefly, compounds and control antibiotics were serially diluted two-fold in 96-well plates (Non-binding surface, Corning). The plates were placed in a Coy anaerobic chamber (5% H2, 10% CO2, 85% N2) overnight to reduce the medium. C. difficile bacteria from BHIS(TA) agar plates were cultured anaerobically in BHIS at 37 °C overnight. […]. Compound concentration ranged from 64 to 0.03 μg/mL. An antibiotic standard, a positive growth control (no compound) and a sterility control (no bacteria) were included on each 96 well plate. Plates were covered and incubated at 37 °C for 24 h. MICs for each strain were determined as the lowest concentration without visible growth. Variance between replicates was typically within one 2-fold dilution. Median MICs are reported with a range given when the median MIC was between two tested concentrations.

[3] = Resazurin cytotoxicity assay, HEK293; format: cell-based, Human; conditions: human, 24 h, highest concentration 100 μM, n = 3, read-out: CC50 HEK 293
Procedure: (§2) Human HEK293 and HepG2 cells were seeded at 3000 and 5000 cells per well in 384-well plates, respectively. Cells were cultured in Dulbecco's modified Eagle's medium with 10% FBS for 24 h at 37 °C, 5% CO2. A dilution series of compounds was added, with the highest concentration of 100 μM. […] After 24 h incubation with the compounds, 5 μM resazurin was added into each well and incubated at 37 °C for 2 h. As a negative control, 1% Triton X-100 was added into the culture media to lyse all of the cells. The fluorescence intensity was read using Polarstar Omega with excitation/emission 560/590 nm. Data were analysed with GraphPad Prism 6 software (La Jolla, California USA) to calculate CC50 values.

[4] = Resazurin cytotoxicity assay, HepG2; format: cell-based, Human; conditions: human, 24 h, highest concentration 100 μM, n = 3, read-out: CC50 Hep G2
Procedure: as §2

[5] = read-out: EC50 G. lamblia WB, MtzS strain WB, minimum n = 3
[6] = read-out: pEC50 ± SE G. lamblia WB, MtzS strain WB (converted)
[7] = Giardia duodenalis, read-out: EC50 G. lamblia 713M3, MtzR strain 713M3, minimum n = 3
[8] = Giardia duodenalis, read-out: pEC50 ± SE G. lamblia 713M3, MtzR strain 713M3 (converted)
[9] = read-out: EC50 E. histolytica HM1:IMSS
[10] = read-out: pEC50 ± SE E. histolytica HM1:IMSS (converted)
[11] = Trichomonas vaginalis, read-out: EC50 T. vaginalis F1623, MtzS, minimum n = 3
[12] = Trichomonas vaginalis, read-out: pEC50 ± SE T. vaginalis F1623, MtzS (converted)
[13] = strain 630, MtzS, median of n = 4, read-out: MIC C. difficile 630
[14] = read-out: EC50 G. lamblia 713M3, MtzR strain 713M3, minimum n = 3
[15] = read-out: EC50 T. vaginalis F1623, MtzS, minimum n = 3
[16] = 630 and NAP1/027 strains together or strain not given, read-out: MIC C. difficile

Structure (SMILES) | EC50 (G. lamblia WB (MtzS); [5]) [µM] | EC50 (G. lamblia WB (MtzS); [6]) [µM] | S.I (CC50/EC50) (G. lamblia WB (MtzS)) | EC50 (G. lamblia 713M3 (MtzR); [7]) [µM] | EC50 (G. lamblia 713M3 (MtzR); [8]) [µM] | EC50 (E. histolytica HM1:IMSS; [9]) [µM] | EC50 (E. histolytica HM1:IMSS; [10]) [µM] | EC50 (T. vaginalis F1623; [11]) [µM] | EC50 (T. vaginalis F1623; [12]) [µM] | MIC [1, 13] [µg/mL] | MIC [2] [µg/mL] | CC50 at 24 h [3] [µM] | CC50 at 24 h [4] [µM] | EC50 (G. lamblia 713M3 (MtzR); [14]) [µM] | CC50 at 24 h ([3]; HEK293 cells) [µM] | CC50 at 24 h ([4]; HepG2 cells) [µM] | EC50 (T. vaginalis F1623; [15]) [µM] | MIC [1, 16] [µg/mL]
O=C(NCc1cccc(OC(F)(F)F)c1)c1ncc([N+](=O)[O-])[nH]1 [Compound 12c, 5-nitro-N-(3-(trifluoromethoxy)benzyl)-1H-imidazole-2-carboxamide] | 0.2 | 0.2 | >500 | 15 | 14.8 | 3.6 | 3.63 | 1.9 | 1.91 | 16 (≈ 48.5 µM) | 16 (≈ 48.5 µM) | > 100 | > 100 |  |  |  |  | 
CC(NC(=O)c1ncc([N+](=O)[O-])[nH]1)c1ccc(F)cc1 (centres unmarked) [Compound 12d, N-(1-(4-fluorophenyl)ethyl)-5-nitro-1H-imidazole-2-carboxamide] | 0.4 | 0.398 | >250 | ≤ 2.5 | 1.26 | 1.7 | 1.7 | 0.6 | 0.589 | 8 (≈ 28.8 µM) | 8 (≈ 28.8 µM) |  |  | 1.3 | > 100 | > 100 |  | 
Cc1ccc(CCNC(=O)c2ncc([N+](=O)[O-])[nH]2)cc1 [Compound 12e, N-(4-methylphenethyl)-5-nitro-1H-imidazole-2-carboxamide] | 0.1 to 0.6 | 0.1 | >1000 | ≤ 2.5 | 1.35 | 2.1 | 2.09 | 1.2 to 2.3 | 1.2 | 8 (≈ 29.2 µM) | 8 (≈ 29.2 µM) |  |  | 1.4 | > 100 | > 100 | 1.2 | 4 to 16 (≈ 14.6 to 58.3 µM)
O=C(NCc1ccccn1)c1ncc([N+](=O)[O-])[nH]1 [Compound 12f, 5-nitro-N-(pyridin-2-ylmethyl)-1H-imidazole-2-carboxamide] | 7.2 | 7.24 | >14 | > 20 | > 20 | 15 | 15.1 | 7.1 | 7.08 | 2 (≈ 8.09 µM) | 2 (≈ 8.09 µM) |  |  |  | > 100 | > 100 |  | 
CN(C)C(=O)c1ncc([N+](=O)[O-])[nH]1 [Compound 12g, N,N-dimethyl-5-nitro-1H-imidazole-2-carboxamide] | 8.3 | 8.32 | >12 | > 20 | > 20 | 2.7 | 2.69 | 2.4 | 2.34 | 2 (≈ 10.9 µM) | 2 (≈ 10.9 µM) |  |  |  | > 100 | > 100 |  | 
O=C(c1ncc([N+](=O)[O-])[nH]1)N1CCCC1 [Compound 12i, (5-nitro-1H-imidazol-2-yl)(pyrrolidin-1-yl)methanone] | 3.4 | 3.39 | >29 | 13 | 13.2 | 4.3 | 4.27 | 1.2 to 2.3 | 1.7 | 2 (≈ 9.52 µM) | 2 (≈ 9.52 µM) |  |  |  | > 100 | > 100 | 1.7 | 
O=C(NC1CC1)c1ncc([N+](=O)[O-])[nH]1 [Compound 12j, N-cyclopropyl-5-nitro-1H-imidazole-2-carboxamide] | 5 | 5.01 | >20 | > 20 | > 20 | 5.3 | 5.25 | 4.4 | 4.37 | 1 (≈ 5.1 µM) | 1 (≈ 5.1 µM) |  |  |  | > 100 | > 100 |  | 1 (≈ 5.1 µM)
NC(=O)c1ncc([N+](=O)[O-])[nH]1 [Compound 12l, 5-nitro-1H-imidazole-2-carboxamide] | > 50 | > 50.1 |  | > 20 | > 20 | 13 | 13.2 | > 20 | > 20 | 1 (≈ 6.41 µM) | 1 to 2 (≈ 6.41 to 12.8 µM) | > 100 | > 100 |  |  |  |  | 
CNC(=O)c1ncc([N+](=O)[O-])[nH]1 [Compound 12m, N-methyl-5-nitro-1H-imidazole-2-carboxamide] | 9.9 | 10 | >10 | > 20 | > 20 | 6.1 | 6.17 | 8.5 | 8.51 | 0.5 to 1 (≈ 2.94 to 5.88 µM) | 1 (≈ 5.88 µM) |  |  |  | > 100 | > 100 |  | 
O=C(NCCO)c1ncc([N+](=O)[O-])[nH]1 [Compound 12n, N-(2-hydroxyethyl)-5-nitro-1H-imidazole-2-carboxamide] | > 50 | > 50.1 |  | > 20 | > 20 | > 50 | > 50.1 | > 20 | > 20 | 8 (≈ 40 µM) | 8 to 16 (≈ 40 to 79.9 µM) |  |  |  | > 100 | > 100 |  | 8 to 16 (≈ 40 to 79.9 µM)
CN(CCO)C(=O)c1ncc([N+](=O)[O-])[nH]1 [Compound 12o, N-(2-hydroxyethyl)-N-methyl-5-nitro-1H-imidazole-2-carboxamide] | 24 | 24 | >4 | > 20 | > 20 | > 50 | > 50.1 | > 20 | > 20 | 2 (≈ 9.34 µM) | 4 (≈ 18.7 µM) |  |  |  | > 100 | > 100 |  | 0.5 to 2 (≈ 2.33 to 9.34 µM)
